From patent US6683073B1, “Pyrimidine linked pyrrolo[2,1-c][1,4]benzodiazepines as potential antitumour agents” (Council of Scientific and Industrial Research, priority 2003, dated 2004)

Assays:
CNS cancer cell lines = test: NCI in vitro cytotoxicity screen (SRB), CNS panel; format: cell-based, human; settings: average of six to eight different cancer cell lines
Experimental: (§1) Biological Activity: In vitro biological activity studies were carried out at National Cancer Institute (USA).
(§2) Cytotoxicity: Compounds VIa and VIb were evaluated in vitro against sixty human tumour cells derived from nine cancer types (leukemia, non-small-cell lung, colon, CNS, melanoma, ovarian, prostate, and breast cancer). For each compound, dose response curves for each cell line were measured at a minimum of five concentrations at 10 fold dilutions. A protocol of 48 h continuous drug exposure was used and a sulforhodamine B (SRB) protein assay was used to estimate cell viability or growth. The concentration causing 50% cell growth inhibition (GI50), total cell growth inhibition (TGI 0% growth) and 50% cell death (LC50, −50% growth) compared with the control was calculated.
(§3) Each cancer type represents the average of six to eight different cancer cell lines.

[1] = test system: non-small-cell lung cancer cell lines; test: NCI in vitro cytotoxicity screen (SRB), non-small-cell lung panel; format: cell-based, human; settings: average of six to eight different cancer cell lines
Experimental: as §1, §2, §3

Renal cancer cell lines = test: NCI in vitro cytotoxicity screen (SRB), renal panel; format: cell-based, human; settings: average of six to eight different cancer cell lines
Experimental: as §1, §2, §3

[2] = test system: Ovarian cancer cell lines; test: NCI in vitro cytotoxicity screen (SRB), ovarian panel; format: cell-based, human; settings: average of six to eight different cancer cell lines
Experimental: as §1, §2, §3

[3] = test system: sixty human tumour cells derived from nine cancer types; test: NCI in vitro cytotoxicity screen, 48 h drug exposure, sulforhodamine B (SRB) protein assay; format: cell-based; settings: for Log10 GI50 mean graph midpoint (MG_MID): concentration causing 50% cell growth inhibition; for Log10 GI50 mean graph midpoint (MG_MID) / Log10 TGI mean graph midpoint (MG_MID): mean over human tumour cell lines, 48 h exposure; for Log10 TGI mean graph midpoint (MG_MID): total cell growth inhibition (0% growth)
Experimental: as §1, §2

Breast cancer cell lines = test: NCI in vitro cytotoxicity screen (SRB), breast panel; format: cell-based, human; settings: average of six to eight different cancer cell lines
Experimental: as §1, §2, §3

Colon cancer cell lines = test: NCI in vitro cytotoxicity screen (SRB), colon panel; format: cell-based, human; settings: average of six to eight different cancer cell lines
Experimental: as §1, §2, §3

[4] = test system: Prostate cancer cell lines; test: NCI in vitro cytotoxicity screen (SRB), prostate panel; format: cell-based, human; settings: average of six to eight different cancer cell lines
Experimental: as §1, §2, §3

Leukaemia cell lines = test: NCI in vitro cytotoxicity screen (SRB), leukaemia panel; format: cell-based, human; settings: average of six to eight different cancer cell lines
Experimental: as §1, §2, §3

Melanoma cell lines = test: NCI in vitro cytotoxicity screen (SRB), melanoma panel; format: cell-based, human; settings: average of six to eight different cancer cell lines
Experimental: as §1, §2, §3

Row | SMILES | in vitro cytotoxicity, log10 value (quantity not given) (CNS cancer cell lines) | in vitro cytotoxicity, log10 value (quantity not given) [1] | in vitro cytotoxicity, log10 value (quantity not given) (Renal cancer cell lines) | in vitro cytotoxicity, log10 value (quantity not given) [2] | Log10 GI50 mean graph midpoint (MG_MID) [3] | Log10 TGI mean graph midpoint (MG_MID) [3] | in vitro cytotoxicity, log10 value (quantity not given) (Breast cancer cell lines) | in vitro cytotoxicity, log10 value (quantity not given) (Colon cancer cell lines) | in vitro cytotoxicity, log10 value (quantity not given) [4] | in vitro cytotoxicity, log10 value (quantity not given) (Leukaemia cell lines) | in vitro cytotoxicity, log10 value (quantity not given) (Melanoma cell lines) | cytotoxic / anticancer activity, in words ([3]; human tumour cell lines)
1 | COc1cc2c(cc1OCCCOc1cc(-c3ccc(F)cc3)nc(C)n1)N=C[C@@H]1CCCN1C2=O [VIa, 7-methoxy-8-[6′-(4″-fluorophenyl)-2′-methylpyrimidine-4′-yloxy]propoxy-(11aS)-1,2,3,11a-tetrahydro-5H-pyrrolo[2,1,c][1,4]benzodiazepin-5-one] | −4.10 | −4.07 | −4.18 | −4.05 | −4.73 | −4.34 | −4.09 | −4.12 | −4.00 | −4.03 | −4.14 | –
2 | COc1cc2c(cc1OCCCCOc1cc(-c3ccc(F)cc3)nc(C)n1)N=C[C@@H]1CCCN1C2=O [VIb, 7-methoxy-8-[6′-(4″-fluorophenyl)-2′-methylpyrimidine-4′-yloxy]butoxy-(11aS)-1,2,3,11a-tetrahydro-5H-pyrrolo[2,1,c][1,4]benzodiazepin-5-one] | −4.40 | −4.61 | −4.39 | −4.33 | −6.41 | −5.57 | −4.52 | −4.67 | −4.45 | −5.41 | −5.22 | slightly higher activity
